Article PMC5382548 (Scientific Reports, 2015)
Where “and” joins values, the source holds several entries; their conditions need not be identical. Identical values can stand only once.

Tests used:
[1] = test system: KRAS21R G4; experiment: Spectrofluorimetric titration with KRAS21R G4; format: binding, human; conditions: for Apparent association constant Ka (KRAS21R): ligand 1 μM, K-cacodylate pH 7.4, 60 mM K+, 25°C; for Hill constant h (KRAS21R): one-site saturation binding Hill slope model
Method: (§1) To characterize the binding of IQc to DNA structures, spectrofluorimetric titration assays were performed with the non-substituted (2a), mono-alkyldiamine (2d) and di-alkyldiamine (3e) derivatives using un-labelled KRAS21R G4 and 26ds-DNA. […] Their fluorescence intensity was proportional to concentration up to 10 μM. […] The fluorescence titration data (Figure 4) was fitted to the Scatchard model[25] (Figure 4, insets). […] Scatchard plots of 2d and 3e (Figure 4b–c, insets) are all concave-down nonlinear curves, which may denote different positive cooperative binding sites in G4, with more than one equivalent and non-independent binding sites. […] Therefore, association constants for 2d and 3e were obtained from the one-site saturation binding Hill slope model (Figure 4b–c). These are apparent binding constants, i.e. they are macroscopic Ka which reflect the total binding.
(§2) Figure 4 Fluorescence data of (a) 2a, (b) 2d, and (c) 3e (1 μM) in K-cacodylate buffer (pH 7.4, containing 60 mM K^+) at 25°C, titrated with KRAS21R and HT21 G4s, and 26ds, fitted to the saturation binding equations and Scatchard model (insets).
(§3) Fluorescence data were collected with a λex of 290 nm and a λem around 475 nm for 2d and 3e, and a λex of 275 nm and a λem around 460 for 2a. Test compounds were prepared as 1 mM in HPLC-grade water (10% DMSO) stock solutions. The rest of the dilutions were performed using K-cacodylate buffer (pH = 7.4, containing 60 mM K^+). The G4 single-strand oligonucleotide sequences were initially diluted from the storage solution (100 μM) with K-cacodylate, to a stock solution at 25 μM. The titration data were obtained by adding aliquots of previously annealed G4 (heating to 95°C for 10 min, followed by slow cooling to RT) to a solution of the indolo[3,2-c]quinoline ligand (1 μM) in K-cacocylate buffer at 25°C (additional details in Supplementary Information).
(§4) Figure S7. Fluorescence titrations of 1 μM indolo[3,2-c]quinoline 2d (1µM) with KRAS21R G4 and 26ds DNA in K-cacodylate buffer pH 7.4, containing 60 mM K+ at 25 °C.
(§5) Concentration of DNA increase from the top to the bottom (grey lines) Excitation […]
(§6) Figure S8. Fluorescence titrations of 1 μM indolo[3,2-c]quinoline 3e (1µM) with KRAS21R […]
(§7) The titration data obtained were used to construct Scatchard plots with the concentration of bound and free ligand (Cb and Cf, respectively). […]
(§8) number of moles of ligand bound to 1 mol of G4 (r = Cb/CDNA) were calculated.
(§9) Saturation binding isotherms were represented as Scatchard plots, by plotting r/Cf versus r and evaluated according to the model of McGhee and von Hippel. Dissociation constants were determined by fitting the titration experimental data to one-site saturation binding equation or to one-site saturation binding to the Hill slope equation supplied with the GraphPad PRISM software (GraphPad, Version 5.00, San Diego, CA).
(§10) Association constants (Ka) were calculated from dissociation constants (Kd). Scatchard lines represented in the Scatchard plots were calculated from the data fitting to the binding equations (x = 0, y = Fmax/Kd; x = Fmax , y = 0; slope = -Ka). […]

[2] = test system: double-stranded DNA (26ds); experiment: Spectrofluorimetric titration with 26ds DNA; format: binding; conditions: for Apparent association constant Ka (26ds): ligand 1 μM, K-cacodylate pH 7.4, 60 mM K+, 25°C; for Hill constant h (26ds): one-site saturation binding Hill slope model
Method: as §1, §2, §3, §4, §5, §6, §7, §8, §9, §10

[3] = test system: Panc1 (chemo-resistant pancreatic); experiment: SRB short-term cytotoxicity assay, Panc1; format: cell-based; conditions: Homo sapiens, PANC-1, 96 h
Method: Short-term anti-proliferative assays were carried out by two different assays using a panel of human cancer and non-malignant human cell lines. […] The transformed human embryonic kidney cell line HEK293T (wt KRAS) was sensitive to all tested drugs, including TMPyP4, a cationic porphyrin established as a G4 ligand, as well as the anticancer drug 5-fluorouracil (5-FU).
Human cell lines, breast carcinoma (MCF7), lung carcinoma (A549), pancreatic cancer (MIA PaCa2, Panc-1), immortalised telomerase-negative human lung fibroblast (ALT) and normal human lung fibroblast (WI-38), were all purchased from American Type Cell Culture (ATCC). Cell lines were maintained in appropriate medium supplemented with 10% fetal bovine serum (Invitrogen, UK), 2 mM L-glutamine (Invitrogen, Netherlands), and other components as specified by the suppliers. All cell lines were maintained at 37°C, 5% CO2, and routinely passaged. Short-term growth inhibition was measured using the SRB assay as described previously[43] (additional details described in Supplementary Information). […]
Sulforhodamine B (SRB) short-term cytotoxicity assay
Cells were seeded at appropriate densities into the wells of 96 well plates in their corresponding medium and incubated overnight to allow the cells to attach. Subsequently cells were exposed to various concentrations of freshly made solutions of drugs and incubated for 96 h. The cells were subsequently fixed with ice-cold trichloacetic acid (TCA) (10%, w/v) for 30 min and stained with 0.4% SRB dissolved in 1% acetic acid for 15 min.
All incubations were carried out at room temperature except for TCA fixation, which was at 4 °C. The IC50 value, the concentration required to inhibit cell growth by 50%, was determined from the mean absorbance at 540 nm for each drug concentration expressed as a percentage of the control untreated well absorbance. (Performed at School of Pharmacy, University College of London). […]
(#sc-30/sc-126; Santa Cruz Biotechnology Inc., Santa Cruz, CA, USA). […]

Row | SMILES | Apparent association constant Ka (KRAS21R) [1] | Hill constant h (KRAS21R) [1] | Apparent association constant Ka (26ds) [2] | Hill constant h (26ds) [2] | IC50 [3]
1 | CCN(CC)CCCNc1ccc2c(c1)[nH]c1c2c[n+](C)c2ccc(NCCCN(CC)CC)cc12.[Cl-] [3e] | 8.6e+06 M⁻¹ | 2.4 | 3.2e+06 M⁻¹ | 2.5 | 4.8 µM
2 | Cn1cc2c3ccccc3nc-2c2cc(Br)ccc21 [2a, 2-bromo-5-methyl-indolo[3,2-c]quinoline] | 1.7 × 10^6 M^−1 and 1.7/-- × 10^6 M^−1 | – | 0.8 × 10^6 M^−1 and 0.8/-- × 10^6 M^−1 | – | 2.75 µM
3 | CCN(CC)CCCNc1ccc2c(c1)c1[nH]c3ccccc3c1c[n+]2C [2d] | 4.4e+06 M⁻¹ | 2.0 | 2.8e+06 M⁻¹ | 1.5 | 0.22 µM
